Measured values from patent publication US8471005B2 (Cephalon, Inc., priority 2008, dated 2013).
Read-outs that look alike come from different tables or passages of the source.

Assays:
ALK = biological target: T1, ALK (Homo sapiens, UniProt Q9UM73); assay: ALK Kinase Assay (ELISA/TRF, PLC-γ substrate); assay type: biochemical; conditions: read-out: ALK Potency
T1 construct: host or cells: baculovirus expression system
Outline: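 IC50 values derive from percent inhibition plotted against log10 compound concentration and fitted to a variable-slope sigmoidal equation. The underlying reaction used 30 ng/ml ALK acting on immobilized PLC-γ (10 μg/mL in TBS) at 37° C for 15 minutes, read with Eu-N1 PT66 antibody.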

JAK2 = biological target: T2, JAK2 (Homo sapiens, UniProt O60674); assay: Recombinant Human JAK2 Kinase Assay (TRF); assay type: biochemical; conditions: read-out: JAK2 Potency
T2 construct: host or cells: baculovirus expression system
T2 sequence (O60674 whole entry): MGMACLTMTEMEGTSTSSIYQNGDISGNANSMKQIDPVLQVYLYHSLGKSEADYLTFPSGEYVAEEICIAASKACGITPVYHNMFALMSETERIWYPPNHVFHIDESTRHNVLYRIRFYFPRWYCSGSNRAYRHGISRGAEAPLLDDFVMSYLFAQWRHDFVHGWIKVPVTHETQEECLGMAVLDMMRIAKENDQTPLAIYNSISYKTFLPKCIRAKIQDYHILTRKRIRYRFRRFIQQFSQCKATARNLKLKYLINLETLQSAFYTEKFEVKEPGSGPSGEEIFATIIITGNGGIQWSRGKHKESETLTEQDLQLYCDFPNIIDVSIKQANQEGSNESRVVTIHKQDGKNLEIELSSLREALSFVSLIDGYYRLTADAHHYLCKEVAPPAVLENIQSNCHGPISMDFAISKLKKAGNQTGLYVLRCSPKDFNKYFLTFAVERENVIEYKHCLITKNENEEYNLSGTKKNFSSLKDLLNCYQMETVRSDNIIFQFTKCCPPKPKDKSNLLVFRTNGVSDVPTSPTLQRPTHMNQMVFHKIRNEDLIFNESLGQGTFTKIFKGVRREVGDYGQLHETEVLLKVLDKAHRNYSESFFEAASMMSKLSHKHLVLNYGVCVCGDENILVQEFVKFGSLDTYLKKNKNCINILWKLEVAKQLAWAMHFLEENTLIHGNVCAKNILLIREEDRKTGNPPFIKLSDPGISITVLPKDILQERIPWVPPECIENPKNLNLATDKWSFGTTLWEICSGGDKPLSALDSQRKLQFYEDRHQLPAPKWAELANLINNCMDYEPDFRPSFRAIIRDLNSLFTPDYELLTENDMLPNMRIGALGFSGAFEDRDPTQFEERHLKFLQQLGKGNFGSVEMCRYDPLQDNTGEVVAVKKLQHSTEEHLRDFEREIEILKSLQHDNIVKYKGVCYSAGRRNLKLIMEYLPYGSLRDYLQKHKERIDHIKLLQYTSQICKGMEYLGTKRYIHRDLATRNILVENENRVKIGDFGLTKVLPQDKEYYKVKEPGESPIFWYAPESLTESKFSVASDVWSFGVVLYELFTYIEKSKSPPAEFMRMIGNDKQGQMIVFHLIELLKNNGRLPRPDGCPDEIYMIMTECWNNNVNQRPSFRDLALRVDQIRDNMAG
Outline: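 Kinase activity of baculovirus-expressed JAK2 is followed on a surface-immobilised biotinylated peptide, with the reaction run for 20 min at room temperature in buffer containing 0.2 μM ATP and manganese. Phosphorylation is read with Eu-N1 PY100 antibody.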

[1] = ALK kinase inhibition, 1 μM ATP
[2] = JAK2 kinase inhibition, 0.2 μM ATP

T1 sequence (Q9UM73 19-1620): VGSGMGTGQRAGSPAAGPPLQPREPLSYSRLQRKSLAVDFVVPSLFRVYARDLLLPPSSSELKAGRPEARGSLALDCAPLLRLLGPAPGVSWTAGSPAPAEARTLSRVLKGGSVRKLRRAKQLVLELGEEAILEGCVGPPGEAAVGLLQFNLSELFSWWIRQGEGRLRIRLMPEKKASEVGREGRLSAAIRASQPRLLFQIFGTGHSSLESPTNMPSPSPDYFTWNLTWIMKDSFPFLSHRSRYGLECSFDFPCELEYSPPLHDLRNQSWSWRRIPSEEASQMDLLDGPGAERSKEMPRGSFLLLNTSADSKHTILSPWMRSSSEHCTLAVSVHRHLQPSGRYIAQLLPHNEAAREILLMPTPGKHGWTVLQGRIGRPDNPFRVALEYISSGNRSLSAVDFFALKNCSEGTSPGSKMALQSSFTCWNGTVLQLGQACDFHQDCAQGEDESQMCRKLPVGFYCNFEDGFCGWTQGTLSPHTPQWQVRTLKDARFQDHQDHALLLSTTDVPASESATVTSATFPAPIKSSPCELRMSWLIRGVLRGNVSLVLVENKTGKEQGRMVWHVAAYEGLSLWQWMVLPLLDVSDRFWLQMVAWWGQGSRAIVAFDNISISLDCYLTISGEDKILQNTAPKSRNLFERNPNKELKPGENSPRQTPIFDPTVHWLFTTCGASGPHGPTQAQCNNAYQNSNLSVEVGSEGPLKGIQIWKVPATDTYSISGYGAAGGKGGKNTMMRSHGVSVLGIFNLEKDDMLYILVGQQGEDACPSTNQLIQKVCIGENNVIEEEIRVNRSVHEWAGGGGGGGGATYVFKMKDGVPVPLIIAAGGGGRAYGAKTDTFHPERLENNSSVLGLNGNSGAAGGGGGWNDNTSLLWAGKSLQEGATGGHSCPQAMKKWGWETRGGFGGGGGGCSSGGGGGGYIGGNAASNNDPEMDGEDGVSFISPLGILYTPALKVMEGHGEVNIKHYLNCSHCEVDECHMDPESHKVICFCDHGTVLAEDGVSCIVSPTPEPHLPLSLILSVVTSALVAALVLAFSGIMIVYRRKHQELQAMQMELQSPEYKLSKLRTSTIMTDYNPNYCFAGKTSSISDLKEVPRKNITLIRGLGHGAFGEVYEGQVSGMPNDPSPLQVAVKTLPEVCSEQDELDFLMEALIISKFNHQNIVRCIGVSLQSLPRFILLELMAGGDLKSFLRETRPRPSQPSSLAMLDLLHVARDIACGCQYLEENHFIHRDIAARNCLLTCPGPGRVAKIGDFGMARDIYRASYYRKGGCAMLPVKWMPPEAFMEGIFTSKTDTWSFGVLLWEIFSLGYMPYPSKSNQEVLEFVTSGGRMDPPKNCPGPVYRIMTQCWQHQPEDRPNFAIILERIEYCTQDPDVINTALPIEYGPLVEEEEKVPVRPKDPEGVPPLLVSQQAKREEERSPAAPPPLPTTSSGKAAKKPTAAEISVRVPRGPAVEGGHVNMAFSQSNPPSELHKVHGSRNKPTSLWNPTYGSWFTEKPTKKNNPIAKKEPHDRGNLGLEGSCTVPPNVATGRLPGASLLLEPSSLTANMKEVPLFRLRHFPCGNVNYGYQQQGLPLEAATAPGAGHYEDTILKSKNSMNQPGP

Compound | IC50 (ALK; [1]) [nM] | IC50 (JAK2; [2]) [nM] | IC50 (ALK; ALK Kinase Inhibition) [nM] | IC50 (JAK2; JAK2 Kinase Inhibition) [nM]
COc1cc(C2CCN(C)CC2C)ccc1Nc1ncc2ccc(-c3ccccc3OC)n2n1 (racemic) [Example 858, (±)-[4-(1,3-Dimethyl-piperidin-4-yl)-2-methoxy-phenyl]-[7-(2-methoxy-phenyl)-pyrrolo[2,1-f][1,2,4]triazin-2-yl]-amine] | < 100 | 100 to 1000 | – | –
COc1ccccc1-c1ccc2cnc(Nc3ccn(CC(=O)N4CCN(C)CC4)n3)nn12 [Example 1114, 2-{3-[7-(2-Methoxy-phenyl)-pyrrolo[2,1-f][1,2,4]triazin-2-ylamino]-pyrazol-1-yl}-1-(4-methyl-piperazin-1-yl)-ethanone] | 100 to 1000 | < 100 | – | –
COc1cc(N2CCC(N3CCOCC3)CC2)ccc1Nc1ncc2ccc(-c3ccccc3NC(C)=O)n2n1 [Example 453, N-(2-{2-[2-Methoxy-4-(4-morpholin-4-yl-piperidin-1-yl)-phenylamino]-pyrrolo[2,1-f][1,2,4]triazin-7-yl}-phenyl)-acetamide] | – | – | 100 to 1000 | 1000 to 10000
CC(=O)N1CCc2ccc(Nc3ncc4ccc(-c5cccc(NS(C)(=O)=O)c5)n4n3)cc21 [Example 1367, N-{3-[2-(1-Acetyl-2,3-dihydro-1H-indol-6-ylamino)-pyrrolo[2,1-f][1,2,4]triazin-7-yl]-phenyl}-methanesulfonamide] | – | – | 1000 to 10000 | < 100
COc1ccc(-c2ccc3cnc(Nc4ccc5c(c4)N(S(C)(=O)=O)CCC5)nn23)cn1 [Example 1061, (1-Methanesulfonyl-1,2,3,4-tetrahydro-quinolin-7-yl)-[7-(6-methoxy-pyridin-3-yl)-pyrrolo[2,1-f][1,2,4]triazin-2-yl]-amine] | > 10000 | < 100 | – | –
CCN(CC)C(=O)c1ccccc1-c1ccc2cnc(Nc3ccc(N4CCOCC4)cc3)nn12 [Example 408, N,N-Diethyl-2-[2-(4-morpholin-4-yl-phenylamino)-pyrrolo[2,1-f][1,2,4]triazin-7-yl]-benzamide] | – | – | 100 to 1000 | < 100
CC(C)(C)NS(=O)(=O)c1cccc(-c2ccc3cnc(Nc4cccc(C(N)=O)c4)nn23)c1 [Example 1390, 3-[7-(3-tert-Butylsulfamoyl-phenyl)-pyrrolo[2,1-f][1,2,4]triazin-2-ylamino]-benzamide] | – | – | 1000 to 10000 | < 100
COc1cc(C2CCN(C[C@H](O)CO)CC2)ccc1Nc1ncc2ccc(-c3ccccc3OC)n2n1 [Example 761, (S)-3-(4-{3-Methoxy-4-[7-(2-methoxy-phenyl)-pyrrolo[2,1-f][1,2,4]triazin-2-ylamino]-phenyl}-piperidin-1-yl)-propane-1,2-diol] | < 100 | 100 to 1000 | – | –
CN1CCN(C(=O)c2cccc(Nc3ncc4ccc(-c5cccc(Cl)c5)n4n3)c2)CC1 [Example 340, {3-[7-(3-Chloro-phenyl)-pyrrolo[2,1-f][1,2,4]triazin-2-ylamino]-phenyl}-(4-methyl-piperazin-1-yl)-methanone] | – | – | 100 to 1000 | < 100
CS(=O)(=O)c1cccc(-c2ccc3cnc(Nc4ccc(CN5CCS(=O)(=O)CC5)cc4)nn23)c1 [Example 1049, [4-(1,1-Dioxo-1$1(6)-thiomorpholin-4-ylmethyl)-phenyl]-[7-(3-methanesulfonyl-phenyl)-pyrrolo[2,1-f][1,2,4]triazin-2-yl]-amine] | 1000 to 10000 | < 100 | – | –
CN1CCN(c2ccc(Nc3ncc4ccc(-c5cccc(NS(C)(=O)=O)c5)n4n3)cc2)CC1 [Example 379, N-(3-{2-[4-(4-Methyl-piperazin-1-yl)-phenylamino]-pyrrolo[2,1-f][1,2,4]triazin-7-yl}-phenyl)-methanesulfonamide] | – | – | 100 to 1000 | < 100
O=S(=O)(CC1CC1)c1cccc(-c2ccc3cnc(Nc4ccc5nc(C(F)(F)F)[nH]c5c4)nn23)c1 [Example 1318, [7-(3-Cyclopropylmethanesulfonyl-phenyl)-pyrrolo[2,1-f][1,2,4]triazin-2-yl]-(2-trifluoromethyl-3H-benzimidazol-5-yl)-amine] | > 10000 | < 100 | – | –
[7-(2-Methoxy-phenyl)-pyrrolo[2,1-f][1,2,4]triazin-2-yl]-(2-methyl-1,2,3,4-tetrahydro-isoquinolin-7-yl)-amine [Example 984] | 100 to 1000 | < 100 | – | –
CC(=O)Nc1cc(Nc2ncc3ccc(-c4ccc(S(C)(=O)=O)cc4)n3n2)ccc1C(C)(C)C [Example 326, N-{2-tert-Butyl-5-[7-(4-methanesulfonyl-phenyl)-pyrrolo[2,1-f][1,2,4]triazin-2-ylamino]-phenyl}-acetamide] | – | – | > 10000 | < 100
CN(c1ccccc1-c1ccc2cnc(Nc3ccncc3)nn12)S(C)(=O)=O [Example 1364, N-Methyl-N-{2-[2-(pyridin-4-ylamino)-pyrrolo[2,1-f][1,2,4]triazin-7-yl]-phenyl}-methanesulfonamide] | 1000 to 10000 | < 100 | – | –
COc1cc(N2CCC(N3CCOCC3)CC2)ccc1Nc1ncc2ccc(-c3ccccc3CS(C)(=O)=O)n2n1 [Example 549, [7-(2-Methanesulfonylmethyl-phenyl)-pyrrolo[2,1-f][1,2,4]triazin-2-yl]-[2-methoxy-4-(4-morpholin-4-yl-piperidin-1-yl)-phenyl]-amine] | 100 to 1000 | 1000 to 10000 | – | –
COc1cc(N2CCC(N3CCN(C)CC3)CC2)ccc1Nc1ncc2ccc(-c3ccccc3OC)n2n1 [Example 251, {2-Methoxy-4-[4-(4-methyl-piperazin-1-yl)-piperidin-1-yl]-phenyl}-[7-(2-methoxy-phenyl)-pyrrolo[2,1-f][1,2,4]triazin-2-yl]-amine] | – | – | < 100 | < 100
COc1cc([C@@H]2CCN(C(=O)OC(C)(C)C)C[C@@H]2O)ccc1Nc1ncc2ccc(-c3ccccc3OC)n2n1 (racemic) [Example 834, (±)-(3R,4S)-3-Hydroxy-4-{3-methoxy-4-[7-(2-methoxy-phenyl)-pyrrolo[2,1-f][1,2,4]triazin-2-ylamino]-phenyl}-piperidine-1-carboxylic acid tert-butyl ester] | 100 to 1000 | 100 to 1000 | – | –
N#CCCn1cc(-c2ccc3cnc(Nc4ccc(C5CCN(CC(N)=O)CC5)cc4)nn23)cn1 [Example 933, 2-[4-(4-{7-[1-(2-Cyano-ethyl)-1H-pyrazol-4-yl]-pyrrolo[2,1-f][1,2,4]triazin-2-ylamino}-phenyl)-piperidin-1-yl]-acetamide] | 100 to 1000 | < 100 | – | –

Continued, values first:

IC50 (ALK; [1]) [nM] | IC50 (JAK2; [2]) [nM] | IC50 (ALK; ALK Kinase Inhibition) [nM] | IC50 (JAK2; JAK2 Kinase Inhibition) [nM] | Compound
> 10000 | < 100 | – | – | CS(=O)(=O)c1cccc(-c2ccc3cnc(Nc4ccc(F)c(Cl)c4)nn23)c1 [Example 597, (3-Chloro-4-fluoro-phenyl)-[7-(3-methanesulfonyl-phenyl)-pyrrolo[2,1-f][1,2,4]triazin-2-yl]-amine]
1000 to 10000 | < 100 | – | – | CN(c1ccccc1-c1ccc2cnc(Nc3ccc(=O)[nH]c3)nn12)S(C)(=O)=O [Example 596, N-Methyl-N-{2-[2-(6-oxo-1,6-dihydro-pyridin-3-ylamino)-pyrrolo[2,1-f][1,2,4]triazin-7-yl]-phenyl}-methanesulfonamide]
100 to 1000 | < 100 | – | – | CN1CCN(c2ccc(Nc3ncc4ccc(-c5ccc(S(C)(=O)=O)cc5)n4n3)cn2)CC1 [Example 1110, [7-(4-Methanesulfonyl-phenyl)-pyrrolo[2,1-f][1,2,4]triazin-2-yl]-[6-(4-methyl-piperazin-1-yl)-pyridin-3-yl]-amine]
– | – | 100 to 1000 | < 100 | CN1CCN(CCOc2ccc(Nc3ncc4ccc(-c5cccnc5)n4n3)cc2)CC1 [Example 119, {4-[2-(4-Methyl-piperazin-1-yl)-ethoxy]-phenyl}-(7-pyridin-3-yl-pyrrolo[2,1-f][1,2,4]triazin-2-yl)-amine]
– | – | 100 to 1000 | < 100 | CCc1cc(-c2ccccc2OC)n2nc(Nc3ccc(N4CCN(C)CC4)cc3)ncc12 [Example 106, [5-Ethyl-7-(2-methoxy-phenyl)-pyrrolo[2,1-f][1,2,4]triazin-2-yl]-[4-(4-methyl-piperazin-1-yl)-phenyl]-amine]
– | – | 100 to 1000 | 100 to 1000 | Cc1c(Nc2ncc3ccc(-c4ccccc4N(C)S(C)(=O)=O)n3n2)ccc2[nH]c(=O)oc12 [Example 1493, N-Methyl-N-{2-[2-(7-methyl-2-oxo-2,3-dihydro-benzoxazol-6-ylamino)-pyrrolo[2,1-f][1,2,4]triazin-7-yl]-phenyl}-methanesulfonamide]
1000 to 10000 | < 100 | – | – | COc1ccccc1-c1ccc2cnc(Nc3ccc4c(c3)N(C)CCC4)nn12 [Example 982, [7-(2-Methoxy-phenyl)-pyrrolo[2,1-f][1,2,4]triazin-2-yl]-(1-methyl-1,2,3,4-tetrahydro-quinolin-7-yl)-amine]
– | – | 100 to 1000 | < 100 | COc1ccccc1-c1ccc2cnc(Nc3ccc(C(=O)N4CCN(C)CC4)cc3)nn12 [Example 318, {4-[7-(2-Methoxy-phenyl)-pyrrolo[2,1-f][1,2,4]triazin-2-ylamino]-phenyl}-(4-methyl-piperazin-1-yl)-methanone]
– | – | < 100 | 100 to 1000 | COc1cc(N2CCCC(N3CC(C)OC(C)C3)C2)ccc1Nc1ncc2ccc(-c3ccccc3OC)n2n1 (stereo not shown) [Example 1445, {4-[3-(2,6-Dimethyl-morpholin-4-yl)-piperidin-1-yl]-2-methoxy-phenyl}-[7-(2-methoxy-phenyl)-pyrrolo[2,1-f][1,2,4]triazin-2-yl]-amine]
< 100 | < 100 | – | – | CN1CCN(c2ccc(Nc3ncc4ccc(-c5cnc6ccccc6c5)n4n3)cc2)CC1 [Example 1037, [4-(4-Methyl-piperazin-1-yl)-phenyl]-(7-quinolin-3-yl-pyrrolo[2,1-f][1,2,4]triazin-2-yl)-amine]
